Where a name gives a salt, the structure may show the parent alone. Read-outs that look alike come from different tables or passages of the source.

Here are results for 13 compounds from patent publication US5461061A, “Centrally acting 6,7,8,9-tetrahydro-3H-benz(E)indole heterocyclics” (priority 1993, dated 1995).

The subject of one series is 5-HT1A sites. The note with it: 3H-8-OH-DPAT, rat brain homogenates; cited from earlier work.
The next series has as its system 5-HT1A. The note with it: cited from earlier work.
Series [1] deals with central dopamine receptor (DOPA accumulation in the striatum). The experiment in a line: In vivo rat brain tyrosine hydroxylation (DOPA accumulation, striatum) after reserpine pretreatment and NSD 1015. The note with it: sc, reserpine-pretreated rats, bracket = highest dose tested, read-out: Dopa ED50 (stri). As for the experimental part:
(§1) In vivo determination of a rat brain tyrosine and tryptophan hydroxylation after reserpine pretreatment (biochemically monitored dopamine and 5-HT receptor activity).
(§2) The compounds under evaluation were tested biochemically for central dopamine and 5-HT receptor (pre- and/or post-synaptic) stimulating activity. The concept of this biochemical screening method is that a dopamine or 5-HT-receptor agonist will stimulate the receptor and through regulatory feedback systems effect a decline in tyrosine or tryptophan hydroxylating activity, respectively, and a subsequent reduction in the synthesis rate for dopamine and 5-HT in the presynaptic neuron. Dopa and 5-HTP formation, as determined after in vivo inhibition of the aromatic L-amino acid decarboxylase with NSD 1015 (3-hydroxybenzylhydrazine hydrochloride) are taken as indirect measures of dopamine and 5-HT synthesis rates, respectively as described by Wikstrom et al., J. Med. Chem., 27, 1030, 1984.
Rats (150-300 g) pretreated with reserpine (5 mg/kg, 18 hours before) were given the test compounds. Gross behavioral observations (changes in motility, hindleg abduction, etc.) were made. […]

Series [2] deals with central 5-HT receptor (5-HTP accumulation in the limbic forebrain). The experiment in a line: In vivo rat brain tryptophan hydroxylation (5-HTP accumulation, limbic forebrain) after reserpine pretreatment and NSD 1015. The note with it: reserpine-pretreated rats, read-out: 5-HTP ED50 (limb). As for the experimental part: as §1, §2
(§3) Rats (150-300 g) pretreated with reserpine (5 mg/kg, 18 hours before) were given the test compounds. Gross behavioral observations (changes in motility, hindleg abduction, etc.) were made. Subsequent administration of NSD 1015, decapitation, brain dissection (corpora striata, the limbic forebrain and the remaining hemispheral portions (mainly cortex) or rat brain), homogenization, centrifugation, ion-exchange chromatography and spectrofluorimetric measurements (all as described in detail by Wikstrom, et al., M. Med. Chem., 21, 864-867, 1978 and reference cited therein), or by HPLC/EC, gave the actual […] and 5-HTP levels. Several doses (n=4-6) were tested for each compound and brain area. The dose of a compound giving 50% of the maximal reduction of the 5-HTP level in the rat brain part was then estimated.
(§4) "+" indicates a motoric activation of the animals.

Series [3] concerns motor activity / gross behavior (DA or 5-HT behavioral syndrome). The experiment in a line: Motor activity and gross behavior in reserpine-pretreated rats. In kind it is in vivo, rat.
Excerpt: Antagonism of the reserpine-induced "neuroleptic syndrome" in the rat (gross behavior)
Depletion of the monoamine stores with reserpine brings about a "neuroleptic syndrome" characterized by hypomotility, catalepsy, muscle rigidity, hunch-backed posture as well as a number of other central and peripheral signs of monoamine depletion. The whole or parts of this syndrome can be reversed by the administration of drugs that stimulate dopamine or 5-HT receptors directly or indirectly.
Stimulation of the dopamine receptors, with apomorphine for example, gives rise to both locomotion and stereotyped behavior such as sniffing, gnawing and jumping. On the other hand, stimulation of the 5-HT receptors, with 5-hydroxytryptophan (5-HTP) combined with MAO-inhibitors for example, gives rise to a very different behavior.
as §3, §4

A short description of series [4]: Blood pressure, heart rate and rectal temperature in awake spontaneously hypertensive rats (SHR). The following applies: for Δtemp max: rectal; for bioavailability: rat, in vivo. In kind it is in vivo, rat (spontaneously hypertensive. The procedure:
(§5) The male spontaneously hypertensive rats (SHR), or normotensive Sprague-Dawley rats # were implanted wit catheters in the arteria carotis and vena jugularis. The blood pressure (BP), heart rate (HR) and rectal temperature were recorded 24 hours later in the awake rat after per oral (p.o.) or intravenous *i.v.) administration of test drugs. Recording time was at least 90 minutes. Shown are the maximal effects during the 90 min recording period expressed as the deviation from baseline values (SHR:BP; 174±6 mmHG, HR; 366±10 beats/min, RT; 38.7±0.15 C and normotensives: BP; 111±3 mmHG, HR; 369±15 beats/min, RT; 38.7±0.23 C, means ±SEM, n=7) (means ±SEM, n=3-4). In case of a biphasic response (heart rate) during the 90 min, both maximal and minimal levels are shown period. The bioavailability calculations were based on the areas under the curves after po and iv administration.
(§6) *denotes statistical significant difference (p<0.05, or less) compared to saline treated controls (ANOVA followed by Fischer's test).

Series [5] has as its target noradrenaline (NA) (α2) receptor. As to the kind of experiment: In vitro binding, brain noradrenaline alpha2 receptor sites. On the set-up: species or system rat. The following applies: non-pretreated rats.
Series [6] can be described thus: Blood pressure, heart rate and rectal temperature in awake normotensive rats (#). The class given is in vivo, rat (normotensive Sprague-Dawley). The following applies: 0.2 μmol/kg i.v. As for the experimental part: as §5, §6
The test system of another series is central DA receptor. The note with it: cited from earlier work.
The next series deals with dopamine receptors. The following applies: cited from earlier work.
Series [7] can be described thus: Stability remark on isolated product. The class given is physicochemical.
Setting [8] is: sc, bracket = highest dose tested.
Setting [9] is: 2.0 μmol/kg i.v., (±) 13a / (±) 13b.
Setting [10] is: 2.0 μmol/kg i.v., second printed (±) 13a line (biphasic, maximal level) / first printed (±) 13b line.
The mark [11] stands for this setting: 10.0 μmol/kg i.v., first printed (±) 13a line, no # printed.
The mark [12] stands for this setting: 10.0 μmol/kg i.v., second printed (±) 13a line.
The mark [13] stands for this setting: 10.0 μmol/kg p.o., (±) 13a (biphasic, maximal level) / first printed (±) 13b line.
The mark [14] stands for this setting: 10.0 μmol/kg p.o., (±) 13a / first (±) 13b.

Take `CN(C)C1CCc2ccc3[nH]ccc3c2C1` (racemic) [6,7,8,9-tetrahydro-N,N-dimethyl-3H-benz(e)indole-8-amine]: the 5-HT1A binding affinity entry with 5-HT1A sites is “high affinity”. Besides, the “5-HT1A agonist properties in vivo” value with 5-HT1A is listed as “exhibits 5-HT1A agonist properties in vivo”.
Consider `CCCN(CCC)C1CCc2ccc3[nH]ccc3c2C1` (racemic) [(±)-12b, 6,7,8,9-tetrahydro-N,N-dipropyl-3H-benz(e)indole-8-amine], for which the values for the ED50 in [1] and in [2] (setting [8]) were 0.28 µmol/kg and 0.1 µmol/kg, respectively. In [3] (sc), the “Mot. act. (+/-)” value is given as “DA + 5-HT”.
Turning to `CN(C)C1CCc2ccc3[nH]cc(C=O)c3c2C1` (racemic) [(±)-13a, 1-Formyl-6,7,8,9-tetrahydro-N,N-dimethyl-3H-benz(e)indole-8-amine], the values for the ED50 in [2] (po) and in series [2] (setting [8]) were 7 µmol/kg and 4 µmol/kg, respectively. Also, the “Mot. act. (+/-)” value in series [3] (po) and in [3] (sc) was “(+)5-HT” each time. Also, the ΔBP max is -12 ± 4 mm Hg in [4] (2.0 μmol/kg i.v., (±) 13a); -60 ± 5 mm Hg in series [4] (setting [9]); -23 ± 2 mm Hg in series [4] (2.0 μmol/kg p.o.); -3 ± 1 mm Hg in [4] (setting [11]); -57 ± 4 mm Hg in series [4] (setting [12]); -43 ± 22 mm Hg in [4] (setting [14]). Moreover, the ΔHR max result in series [4] (2.0 μmol/kg i.v., (±) 13a) is listed as “+35 ± 34 beats/min”; in series [4] (setting [10]) it was “+55 ± 14 beats/min”; in series [4] (2.0 μmol/kg p.o.), “+37 ± 44 beats/min”; in series [4] (10.0 μmol/kg i.v., (±) 13a, biphasic, maximal level), “+87 ± 18 beats/min”; in [4] (setting [11]) it was “+70 ± 47 beats/min”; in series [4] (setting [13]) it was “+24 ± 43 beats/min”. In addition, the “ΔHR max (minimal level of biphasic response)” value was -33 ± 23 beats/min in series [4] (2.0 μmol/kg i.v., (±) 13a); -37 ± 3 beats/min in series [4] (setting [12]); -39 ± 18 beats/min in series [4] (10.0 μmol/kg p.o.). For the same compound, the “duration ΔBP” value is given as 150 min in series [4] (setting [9]), above 90 min in series [4] (setting [12]) and 75 min in [4] (setting [14]). Also, the Δtemp max was -0.2 ± 0.65 °C in series [4] (setting [9]); -0.2 ± 0.40 °C in series [4] (2.0 μmol/kg i.v., (±) 13a); “+1.2 ± 0 °C” in [4] (2.0 μmol/kg p.o.); -1.0 ± 0.15 °C in series [4] (setting [11]); -0.7 ± 0.33 °C in [4] (setting [12]); “+0.7 ± 0.32 °C” in series [4] (setting [14]). Besides, the bioavailability in series [4] (10 umol/kg, 10.0 μmol/kg p.o., from areas under the curves after po and iv administration, read-out: Bioavail) turned out to be 48%.
For `CCCN(CCC)C1CCc2ccc3[nH]cc(C=O)c3c2C1` (racemic) [(±)-13b, 1-formyl-6,7,8,9-tetrahydro-N,N-dipropyl-3H-benz(e)indole-8-amine], in [2] (setting [8]), the ED50 came out at 0.06 µmol/kg. The IC50 in series [5] was 3700 nM. For the same compound, the “Mot. act. (+/-)” value in [3] (sc) is on record as “+5-HT”. Moreover, the “duration ΔBP” value in series [4] (setting [9]) is reported as 90 min; in series [4] (setting [14]), above 120 min; in series [4] (10.0 μmol/kg p.o., (±) 13b) it was 60 min. Also, the ΔBP max in [4] (setting [9]) is listed as -35 ± 3 mm Hg; in series [4] (2.0 μmol/kg i.v., (±) 13b), “+14 ± 1 mm Hg”; in [4] (setting [14]) it was -55 ± 5 mm Hg; in [4] (10.0 μmol/kg p.o., (±) 13b) it was “+28 ± 6 mm Hg”. Moreover, the Δtemp max in [4] (setting [9]) was -1.5 ± 0.3 °C; in series [4] (2.0 μmol/kg i.v., (±) 13b) it was -1.6 ± 0.2 °C; in [4] (setting [14]) it was -1.0 ± 0.3 °C; in [4] (10.0 μmol/kg p.o., (±) 13b), -0.8 ± 0.4 °C. Moreover, the ΔHR max in series [4] (2.0 μmol/kg i.v., (±) 13b) is recorded as -70 ± 15 beats/min; in series [4] (setting [10]), “+110 ± 10 beats/min”; in [4] (setting [13]), “+78 ± 11 beats/min”; in [4] (10.0 μmol/kg p.o., (±) 13b) it was “+70 ± 30 beats/min”. Also, the bioavailability in series [4] (po) was found to be 36%.
For `CCCN(CCC)C1COc2ccc3[nH]ccc3c2C1` (racemic) [(±)-21, 8-N,N-dipropylamino-8,9-dihydro-2H-pyrano-(3,2-e)-indol], the ED50 in [1] turned out to be 1 µmol/kg; in series [2] (setting [8]), 3.1 µmol/kg. In addition, the “Mot. act. (+/-)” value in series [3] (sc) is “+DA”.
As for `CCCN(CCC)C1COc2ccc3[nH]cc(C=O)c3c2C1` (racemic) [(±)-22, 1-formyl-8-N,N-dipropylamino-8,9-dihydro-2H-pyrano-(3,2-e)indole], the ED50 in series [2] (setting [8]) came to 0.4 µmol/kg. Further, the “Mot. act. (+/-)” value in [3] (sc) is listed as “+5-HT”.
For the compound `CCCN(CCC)C1CCc2cccc(O)c2C1` (racemic) [Compound 8-OH-DPAT, reference compound], the results for the ED50 in [2] (po) and in series [2] (setting [8]) were 3 µmol/kg and 0.048 µmol/kg, respectively. In addition, in [3] (sc), the “Mot. act. (+/-)” value was “++5-HT”. In series [6], this compound showed a ΔBP max of -12 ± 6 mm Hg. The same compound displayed a ΔHR max in series [6] of -83 ± 16 beats/min. Moreover, the Δtemp max in [6] (rectal) was -1.5 ± 0.27 °C.
On to `CCCN(CCC)C1CCc2cc3cc[nH]c3cc2C1` (stereo not drawn) [5,6,7,8-N,N-di-n-propyl-1H-benz(f)indole-7-amine], for which the dopaminergic activity entry in the series on central DA receptor was “dopaminergically inactive”.
For `CN(C)[C@@H]1CCc2ccc3[nH]cc(C=O)c3c2C1` [(+)-13a, (+)-1-formyl-6,7,8,9-tetrahydro-N,N-dimethyl-3H-benz(e) indole-8-amine], the median effective dose (ED50) in series [2] (setting [8]) came to 1 µmol/kg. Further, the IC50 in series [5] turned out to be 140 nM. Also, the “Mot. act. (+/-)” value in series [3] (sc) is “+5-HT”.
For the compound `O=C1CC2(CCCC2)CC(=O)N1CCCCN1CCN(c2ncccn2)CC1` [Buspirone hydrochloride], in the series with dopamine receptors, the dopamine receptor antagonism entry is on record as “antagonizes dopamine receptors at the same dose it stimulates 5-HT1A receptors”.
As for `CN(C)C1CCc2ccc3[nH]cc(Br)c3c2C1` (stereo not drawn) [Example 12, 1-Bromo-6,7,8,9-tetrahydro-N,N-dimethyl-8-amino-3H-benz[e]indole], in [7], the “stability of the product” value was “unstable”.
On to `CN(C)[C@@H]1CCc2ccc3[nH]ccc3c2C1` [R-6,7,8,9-tetrahydro-N,N-dimethyl-3H-benz(e)indole-8-amine], for which the 5-HT1A binding affinity entry in the series on 5-HT1A sites was “high affinity”.
In the case of `CC1(C)CC(=O)N(CCCCN2CCN(c3ncccn3)CC2)C(=O)C1` [gepirone], in the series on dopamine receptors, the dopamine receptor antagonism result was “has dopamine antagonist properties”.
